Experimental data: PubChem BioAssay AID1919004 (Molecular Pharmacology Branch, DTP, NCI, 2023)

Test system: 883617-216-R-J1-PDC complex spheroids, growth, % test/control
Assay: Anticancer human tumor 883617-216-R-J1-PDC patient-derived bladder carcinoma cell line growth inhibition [AhR]
Settings: for IC50: curve of first compound; for viability, T/C: stronger effect = lower value
In short: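 Complex tumor spheroids co-cultured with HUVEC and human MSC stroma; AhR antagonists tested in combination with standard-of-care and investigational agents. Top concentration at or near clinical Cmax (else 10 microM), half-log dilutions; growth expressed as percent test/control.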

[1] = second compound 0.1 µM, first compound 0.00949 µM
[2] = second compound 0.1 µM, first compound 0.03 µM
[3] = second compound 0.1 µM, first compound 0.0949 µM
[4] = second compound 0.1 µM, first compound 0.3 µM
[5] = second compound 0.316 µM, first compound 0.00949 µM
[6] = second compound 0.316 µM, first compound 0.03 µM
[7] = second compound 0.316 µM, first compound 0.0949 µM
[8] = second compound 0.316 µM, first compound 0.3 µM
[9] = second compound 1 µM, first compound 0.00949 µM
[10] = second compound 1 µM, first compound 0.03 µM
[11] = second compound 1 µM, first compound 0.0949 µM
[12] = second compound 1 µM, first compound 0.3 µM
[13] = second compound 3.16 µM, first compound 0.00949 µM
[14] = second compound 3.16 µM, first compound 0.03 µM
[15] = second compound 3.16 µM, first compound 0.0949 µM
[16] = second compound 3.16 µM, first compound 0.3 µM
[17] = second compound 10 µM, first compound 0.00949 µM
[18] = second compound 10 µM, first compound 0.03 µM
[19] = second compound 10 µM, first compound 0.0949 µM
[20] = second compound 10 µM, first compound 0.3 µM
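Also: exposure lasted 7 days after dosing on day 3 of spheroid growth.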

Row | Structure (SMILES) | IC50 (second compound 0.1 µM) | IC50 (second compound 0.316 µM) | IC50 (second compound 1 µM) | IC50 (second compound 3.16 µM) | IC50 (second compound 10 µM) | viability, T/C [1] | viability, T/C [2] | viability, T/C [3] | viability, T/C [4] | viability, T/C [5] | viability, T/C [6] | viability, T/C [7] | viability, T/C [8] | viability, T/C [9] | viability, T/C [10] | viability, T/C [11] | viability, T/C [12] | viability, T/C [13] | viability, T/C [14] | viability, T/C [15] | further results
1 | Nc1ncn(C2CC(O)C(CO)S2)c(=O)n1 (stereo not given) + Cc1cncc(-c2nc(NCCc3c[nH]c4ccccc34)c3ncn(C(C)C)c3n2)c1 | > 300 nM | > 300 nM | > 300 nM | > 300 nM | > 300 nM | 94.6% | 89.9% | 87.3% | 81.9% | 103% | 90.7% | 91.7% | 81.6% | 106% | 107% | 92.4% | 94.8% | 82.4% | 88.2% | 76.7% | viability, T/C (second compound 0.1 µM, first compound 0.000949 µM): 93.3%; viability, T/C (second compound 0.1 µM, first compound 0.003 µM): 88.9%; viability, T/C (second compound 0.316 µM, first compound 0.000949 µM): 95%; viability, T/C (second compound 0.316 µM, first compound 0.003 µM): 104%; viability, T/C (second compound 1 µM, first compound 0.000949 µM): 105%; viability, T/C (second compound 1 µM, first compound 0.003 µM): 119%; viability, T/C (second compound 3.16 µM, first compound 0.000949 µM): 82.8%; viability, T/C (second compound 3.16 µM, first compound 0.003 µM): 82.6%; viability, T/C [16]: 83.1%; viability, T/C (second compound 10 µM, first compound 0.000949 µM): 54.5%; viability, T/C (second compound 10 µM, first compound 0.003 µM): 62.4%; viability, T/C [17]: 59%; viability, T/C [18]: 57.3%; viability, T/C [19]: 46.4%; viability, T/C [20]: 61.5%
2 | O=C(C=Cn1cnc(-c2cc(C(F)(F)F)cc(C(F)(F)F)c2)n1)NNc1cnccn1 + Cc1cncc(-c2nc(NCCc3c[nH]c4ccccc34)c3ncn(C(C)C)c3n2)c1 | 900 nM | 1380 nM | 1760 nM | 1530 nM | < 9.49 nM | 81.5% | 74.9% | 63.7% | 58.1% | 88.3% | 78.4% | 72.3% | 58.1% | 83% | 79.1% | 69.5% | 61.4% | 93.6% | 88.2% | 80% | viability, T/C (second compound 0.1 µM, first compound 0.949 µM): 50.1%; viability, T/C (second compound 0.1 µM, first compound 3 µM): 42.5%; viability, T/C (second compound 0.316 µM, first compound 0.949 µM): 57.1%; viability, T/C (second compound 0.316 µM, first compound 3 µM): 42.4%; viability, T/C (second compound 1 µM, first compound 0.949 µM): 62%; viability, T/C (second compound 1 µM, first compound 3 µM): 42.7%; viability, T/C [16]: 67.5%; viability, T/C (second compound 3.16 µM, first compound 0.949 µM): 52.9%; viability, T/C (second compound 3.16 µM, first compound 3 µM): 45.2%; viability, T/C [17]: 49.5%; viability, T/C [18]: 40.5%; viability, T/C [19]: 32.4%; viability, T/C [20]: 29.7%; viability, T/C (second compound 10 µM, first compound 0.949 µM): 42.5%; viability, T/C (second compound 10 µM, first compound 3 µM): 44.2%
